Patent US20230022796A1 (Merck Patent GmbH, priority 2019, published 2023)

What was measured:
FcγRIIIa V176 = assay: Surface plasmon resonance (Biacore) binding of mAb3 from treated cultures to FcγRIIIa
Protocol: Binding of samples after 5-ThioFuc treatment was investigated by surface plasmon resonance technology using a Biacore T200 system (GE Healthcare, Uppsala, Sweden). The analysis temperature was set to 25° C. and sample compartment temperature to 15° C. […] The anti-His antibody was further used to capture His-tagged FcγRIIIa V176 ([…]) from AcroBiosystems (Newark, Del., USA).
Binding was recorded continuously, while unspecific binding and injection artefacts were subtracted automatically. Single-cycle kinetics were used with a dissociation time of 600 s at a flow rate of 30 μL/min. Data collection rate was performed at 10 Hz. Following each experiment, both flow cells were regenerated for 30 s with 10 mM glycine-HCl pH 1.5 according to kit instructions. Data of three technical and two biological replicates were fitted with a 1:1 binding model. The global dissociation constant KD was determined from the ratio of the kinetic rate constants for dissociation (kd) and association (ka) values. Data are presented in Table 1 as fold change compared to the control.

[1] = tested on: CHO cell line producing a fusion protein; assay: Glycosylation profile (UPLC-MS of released glycans) of fusion protein from fed-batch; format: cell-based, Chinese hamster; conditions: 400 μM additive, day 12
Protocol: Glycosylation patterns were analyzed by ultra-performance liquid chromatography coupled to a mass spectrometer (UPLC-MS). The purified antibody was denaturated and the glycans were released from the antibody by digestion with peptide N-glycosidase F (PNGase F) followed by labeling the glycans with the GlycoWorks™ RapiFluor-MS™ N-Glycan Kit according to the manufacturer protocol. For the analysis, an UPLC glycan column (2.1×150 mm) that separated the glycans according to their […] was used. The chromatography was performed at 45° C. using 50 mM ammonium formate (A), pH 4.4 solution and an acetonitrile (B) gradient. In detail, at the beginning the ratio of A:B was 20:80 (0 min) and changed to 27:73 at 3 min and 37:63 at 35 min at a flow rate of 0.5 ml/min. From 36.5 min to 39.5 min only A was used as mobile phase and the flow rate was reduced to 0.2 ml/min. Subsequently, the ratio was changed to 20% A:80% B and the flowrate was increased to 0.5 ml/min at 43.1 min until the end of the process at 55 min. The detection was performed by a fluorescence detector with an excitation wavelength of 265 nm and an emission wavelength of 425 nm. The identification of the glycan structures was performed by MS using positive electro spray ionization (ESI), which was calibrated every 30 s with a standard.
Four different clones of Chinese hamster ovary (CHO) cells expressing three different monoclonal antibodies (mAb) and a fusion protein were tested. Cells were cultivated in spin tubes between 14 and 20 days at 37° C., 5% CO2, and 80% humidity. As starting cell density, 3×10^5 cells/mL in 30 mL Cellvento®4CHO media (pH 7.0±0.1) was used for clone 1 and 2 producing mAb1 and mAb2, respectively (Cellvento® Platform). Cells were cultivated at an agitation of 320 rpm and were fed on day 3, 5, 10, 12 and 14 with 3% volume of Cellvento® 4Feed (v/v) and on day 7 with 6% (v/v) of the feed. Clone 3 and 4 producing mAb3 and a fusion protein were inoculated at the same cell density in 30 mL Ex-Cell® Advanced Media (pH 7.2±0.1) while agitation was set to 230 rpm (Ex-Cell® Platform). Clones 3 and 4 were fed with […] Advanced Feed (v/v) on day 3, 5, 7, 10, 12, 14 and 17. […] The pH of all Cellvento® feeds was adjusted to 7.0±0.1 and Ex-Cell® Feeds were adjusted to 8.5±0.1. The glucose level was maintained above 4 g/L by adding a specific amount of a 400 g/L glucose stock solution on demand to up to 6 g/L during the week and up to 13 g/L over the weekend. Glucose and titer were detected in the supernatant with the bioprocess analyzer CEDEX Bio HT (Roche, Mannheim, Germany).
To investigate the glycosylation profile during the fed-batch experiment samples were centrifugated and antibodies and Fc-fusion proteins were purified from the cell culture supernatant using protein A PhyTips® (PhyNexus Inc, San Jose, Calif.). Glycosylation patterns were analyzed as described by ultra-performance liquid chromatography coupled to a mass spectrometer (UPLC-MS) using the GlycoWorks™ RapiFluor-MS™ N-Glycan Kit.
Glycosylation profile on day 12 was visualized since harvest of recombinant produced proteins on day 12 is common. Quantification of the glycans was obtained using the relative peak area of the fluorescence signal. Almost all peaks were assigned to glycan structures according to their mass. Unknown glycan structures and signals without mass detection were summarized as unknown species (not shown). Four different clones of Chinese hamster ovary (CHO) cells expressing three different monoclonal antibodies (mAb) and a fusion protein were tested. […] The known positive control achieved a 14% fucosylation level on day 12 by increasing the afucosylation to 78%. The same amount of afucosylation compared to the known fucose-analogue acetylated 2F-Fucose was only achieved by clone 3 expressing mAb3 leading to about 34% afucosylation on day 12 (FIG. 8 C).

[2] = tested on: CHO cell line producing mAb3; assay: Fed-batch cell performance (viable cell density), clone 3 producing mAb3; format: cell-based, Chinese hamster; conditions: mAb3, feed with 400 μM additive
Protocol: Four different clones of Chinese hamster ovary (CHO) cells expressing three different monoclonal antibodies (mAb) and a fusion protein were tested. Cells were cultivated in spin tubes between 14 and 20 days at 37° C., 5% CO2, and 80% humidity. As starting cell density, 3×10^5 cells/mL in 30 mL Cellvento®4CHO media (pH 7.0±0.1) was used for clone 1 and 2 producing mAb1 and mAb2, respectively (Cellvento® Platform). Cells were cultivated at an agitation rate of 320 rpm and were fed on day 3, 5, 10, 12 and 14 with 3% volume of Cellvento® 4Feed (v/v) and on day 7 with 6% (v/v) of the feed. Clone 3 and 4 producing mAb3 and a fusion protein were inoculated at the same cell density in 30 mL Ex-Cell® Advanced Media (pH 7.2±0.1) while agitation was set to 230 rpm. Clones 3 and 4 were fed with 5% Ex-Cell® Advanced Feed (v/v) on day 3, 5, 7, 10, 12, 14 and 17. […]
The glucose level was maintained above 4 g/L by adding a specific amount of a 400 g/L glucose stock solution on demand to up to 6 g/L during the week and up to 13 g/L over the weekend. Glucose and titer were detected in the supernatant with the bioprocess analyzer CEDEX Bio HT (Roche, Mannheim, Germany) based on spectrophotometric and turbidometric methods. The viable cell density (VCD) and viability were evaluated with a Vi-CELL™ XR 2.04 cell counter (Beckman Coulter, Fullerton, Calif., USA). […]

Kd (FcγRIIIa V176; mAb3 from culture fed with 50 μM additive, day 5): 85 nM | Kd (FcγRIIIa V176; mAb3 from culture fed with 50 μM additive, day 12): 63 nM | Kd (FcγRIIIa V176; mAb3 from culture fed with 50 μM additive, day 14): 61 nM | Kd (FcγRIIIa V176; mAb3 from culture fed with 200 μM additive, day 5): 52 nM | Kd (FcγRIIIa V176; mAb3 from culture fed with 200 μM additive, day 12): 40 nM | Kd (FcγRIIIa V176; mAb3 from culture fed with 200 μM additive, day 14): 28 nM | Kd (FcγRIIIa V176; mAb3 from culture fed with 400 μM additive, day 5): 35 nM | Kd (FcγRIIIa V176; mAb3 from culture fed with 400 μM additive, day 12): 32 nM | Kd (FcγRIIIa V176; mAb3 from culture fed with 800 μM additive, day 5): 40 nM
SMILES: C[C@@H]1SC(O)[C@@H](O)[C@H](O)[C@@H]1O (stereo partly shown)
afucosylation [1]: 52% | incorporation of fucose analogue (% of the glycans) [1]: 39% | reduction of core-fucosylation compared to the control [1]: about 63% | reduced VCD (area under the curve until day 17, compared to the control) [2]: about 13%
